In article PMC6273231 (Molecules, 2016):

Target: influenza virus neuraminidase (NA) (Influenza A virus, UniProt Q6DPL2)
Details: enzyme inhibition assay in vitro

Chain of influenza virus neuraminidase (NA) (Q6DPL2 whole entry, looked up): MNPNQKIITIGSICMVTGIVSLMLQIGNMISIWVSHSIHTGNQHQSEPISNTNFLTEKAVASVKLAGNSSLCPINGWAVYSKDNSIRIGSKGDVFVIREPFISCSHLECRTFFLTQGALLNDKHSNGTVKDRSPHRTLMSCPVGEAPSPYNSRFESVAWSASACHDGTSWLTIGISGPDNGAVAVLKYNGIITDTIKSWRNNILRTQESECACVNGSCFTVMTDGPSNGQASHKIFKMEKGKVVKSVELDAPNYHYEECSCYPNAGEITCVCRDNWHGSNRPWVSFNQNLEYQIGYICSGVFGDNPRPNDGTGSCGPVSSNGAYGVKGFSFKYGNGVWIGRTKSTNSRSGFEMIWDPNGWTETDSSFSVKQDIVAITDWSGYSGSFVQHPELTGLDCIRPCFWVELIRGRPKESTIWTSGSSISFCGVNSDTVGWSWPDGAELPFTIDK

| SMILES | NA inhibitory activity compared with the positive control Oseltamivir acid (in words) |
| --- | --- |
| C[C@]12C[C@@H](O)[C@@H]3C[C@@]1(O[C@@H]1O[C@H](CO)[C@@H](O)[C@H](O)[C@H]1O)[C@]3(COC(=O)c1ccccc1)C(=O)O2 [Albiflorin] | stronger activity against NA than Oseltamivir acid |
| C[C@@]12C[C@@]3(O)O[C@@H](O1)[C@]1(COC(=O)c4ccccc4)[C@H]3C[C@@]12O[C@@H]1O[C@H](COC(=O)c2ccccc2)[C@@H](O)[C@H](O)[C@H]1O [Benzoylpaeoniflorin] | stronger activity against NA than Oseltamivir acid |
| C[C@@]12C[C@@]3(O)O[C@@H](O1)[C@]1(COC(=O)c4ccccc4)[C@H]3C[C@@]12O[C@@H]1O[C@H](CO)[C@@H](O)[C@H](O)[C@H]1O [Paeoniflorin] | stronger activity against NA than Oseltamivir acid |
| O=C(OC[C@H]1O[C@@H](OC(=O)c2cc(O)c(O)c(O)c2)[C@H](OC(=O)c2cc(O)c(O)c(O)c2)[C@@H](OC(=O)c2cc(O)c(O)c(O)c2)[C@@H]1OC(=O)c1cc(O)c(O)c(O)c1)c1cc(O)c(O)c(O)c1 [pentagalloylglucose, Pentagalloyl glucose] | stronger activity against NA than Oseltamivir acid |
